According to patent publication US8334002B2, “Cinnamaldehyde—allicin compositions and their method of use” (Valent BioSciences Corporation, priority 2008, dated 2012):

How the values were obtained:
[1] = tested on: nematodes; settings: at concentrations of 300 ppm; cited from earlier work
[2] = tested on: Root Knot Nematodes (Meloidogyne incognita); assay: Greenhouse pot test, root galling after inoculation with second stage juveniles; assay type: in vivo; settings: 300 ppm total a.i.
Source text: Procedure for Greenhouse pot Tests:
2″×2″ plastic pots are filled with 140 to 150 g of plant growth medium that is made up of non-pasteurized sand and soil at 2:1 ratio. Three cucumber seeds (variety Straight Eight; in the case of tomatoes, variety Rutgers) are planted at uniform depth and watered. Upon emergence, two uniform seedlings are allowed to grow in each pot by removing the third seedling. Seedlings are selected when the first true leaf is emerged, generally 5 to 7 days after planting. Each pot is treated with test material diluted in 25 mL of water that is just sufficient to wet the soil but not drip. Except for untreated control, all test pots are inoculated with about 800 second stage juveniles of Root Knot Nematodes (Meloidogyne incognita). Plants are watered as needed. Twelve to fourteen days after the pots are inoculated, the plants are carefully removed from the pots, the roots are gently washed free of soil and placed on paper towels, and data on fresh weight of shoots, roots, number of galls/treatment and/or per gram of root are taken.

[3] = cucumber, preferred formulations of Table 2

O=CC=Cc1ccccc1 [Cinnamaldehyde, cinnamaldehyde]
nematicidal activity [1]: only marginal
% gall reduction in relation to M.i Control [2, 3]: 19.4%
Average gall rating (0-9) [2, 3]: 7.25

C=CCS[S+]([O-])CC=C (stereo not shown) [Allicin, allicin]
% gall reduction in relation to M.i Control [2, 3]: 41.7%
Average gall rating (0-9) [2, 3]: 5.25
% gall reduction in relation to M.i Control ([2]; prototype formulations of Table 1): 72.7%
Average gall rating (0-9) ([2]; prototype formulations of Table 1, 0 = no galls, 9 = heavy galling): 2.25
